Key:
[1] = complex formation of cucurbituril homologues with menthol, analyzed by 1H-NMR; format: binding; conditions: slurry with 11.8 mg menthol and 0.5 mL distilled water, molar ratio 1:1, dried complex
Protocol: A complex was prepared by mixing 100 mg of cucurbit[7]uril and 11.8 mg of menthol at a molar ratio of 1:1. 79.5 mg of cucurbit[6]uril and 118.3 mg of cucurbit[8]uril were respectively put into two mortars, and 11.8 mg of menthol was added to each of the mortars. 0.5 mL of distilled water was added to form a slurry, and then the slurry was stirred for 10 minutes using a pestle to prepare a complex. The complex was dried in an oven at […] for 6 hours. The dried complex was analyzed by 1H-NMR.

[2] = exchange of fragrant molecule for odor molecule in cucurbit[7]uril complex, evaluated by 1H-NMR; format: binding
Protocol: Cucurbit[7]uril was dissolved in distilled water to obtain a 2 mM cucurbit[7]uril aqueous solution. Ethyl butyrate (2 mM), which is a fragrant material, was added to the solution to obtain a complex (cucurbit[7]uril:ethyl butyrate=1:1). The bonding of diallyldisulfide with cucurbituril according to the addition of diallyldisulfide, which is an odor material, and the release of ethyl butyrate according to the addition of diallyldisulfide were evaluated comparing the 1H-NMR peak of the complex after the addition of diallyldisulfide with the 1H-NMR peak of the complex before the addition of diallyldisulfide.
(§1) Cucurbit[7]uril was dissolved in distilled water to obtain a 4 mM cucurbit[7]uril aqueous solution. Menthol (4 mM), which is a fragrant material, was added to the solution to obtain a complex (cucurbit[7]uril:menthol=1:1). The bonding of diaminohexane with cucurbituril according to the addition of diaminohexane, which is an odor material, and the release of menthol according to the addition of diaminohexane were evaluated comparing the 1H-NMR peak of the complex after the addition of diaminohexane with the 1H-NMR peak of the complex before the addition of diaminohexane.
as §1, with “Hexanal” for “Menthol”, “(cucurbit[7]uril:hexanal=1:1).” for “(cucurbit[7]uril:menthol=1:1).”, “hexanal” for “menthol”

[3] = cited from earlier work

O=C1N2CN3C(=O)N4CN5C(=O)N6CN7C(=O)N8CN9C(=O)N%10CN%11C(=O)N%12CN1C1C2N2CN%13C(=O)N(CN%14C(=O)N(CN%15C(=O)N(CN%16C(=O)N(CN%17C(=O)N(CN1C2=O)C%12C%11%17)C%10C9%16)C8C7%15)C6C5%14)C4C3%13 (stereo not shown) [cucurbit[6]uril]
complex formation with menthol (FIG. 2) [1]: barely makes a complex with menthol

O=C1N2CN3C(=O)N4CN5C(=O)N6CN7C(=O)N8CN9C(=O)N%10CN%11C(=O)N%12CN%13C(=O)N%14CN%15C(=O)N%16CN1C1C2N2CN%17C(=O)N(CN%18C(=O)N(CN%19C(=O)N(CN%20C(=O)N(CN%21C(=O)N(CN%22C(=O)N(CN%23C(=O)N(CN1C2=O)C%16C%15%23)C%14C%13%22)C%12C%11%21)C%10C9%20)C8C7%19)C6C5%18)C4C3%17 (stereo not shown) [cucurbit[8]uril]
complex formation with menthol (FIG. 2) [1]: weakly makes a complex with menthol

C=CCSSCC=C [diallydisulfide, diallyldisulfide]
bonding of diallyldisulfide with cucurbituril (FIG. 3) ([2]; added to cucurbit[7]uril:ethyl butyrate=1:1 complex, 2 mM aqueous solution): makes a complex with cucurbituril

NCCCCCCN [diaminohexane]
bonding of diaminohexane with cucurbituril (FIG. 5) ([2]; added to cucurbit[7]uril:hexanal=1:1 complex, 4 mM aqueous solution): makes a complex with cucurbituril | bonding of diaminohexane with cucurbituril (FIG. 4) ([2]; added to cucurbit[7]uril:menthol=1:1 complex, 4 mM aqueous solution): makes a complex with cucurbituril

CCCC(=O)OCC [ethyl butyrate]
release of ethyl butyrate from the complex (FIG. 3) ([2]; cucurbit[7]uril:ethyl butyrate=1:1, 2 mM aqueous solution, diallyldisulfide added): released from the complex

CCCCCC=O [hexanal]
release of hexanal from the complex (FIG. 5) ([2]; cucurbit[7]uril:hexanal=1:1, 4 mM aqueous solution, diaminohexane added): released from the complex

CC1CCC(C(C)C)C(O)C1 (stereo not shown) [menthol]
release of menthol from the complex (FIG. 4) ([2]; cucurbit[7]uril:menthol=1:1, 4 mM aqueous solution, diaminohexane added): released from the complex

cucurbit[7]uril
complex formation with menthol (FIG. 2) [1]: strongly makes a complex with menthol | solubility in water [3]: 2˜3×10^−2 M
